Source: publication PMC10811744 (Molecular cancer therapeutics, 2023)
“And” between values parts separate entries of the source, which are not always exact repeats. Identical values can stand only once. Like-named read-outs stand apart in the source and are kept apart here.

Key:
[1] = test system: GBM cells; test: GBM cell viability; format: cell-based, human; conditions: read-out: GBM cell viability IC50
[2] = test system: U251 GBM cells; test: MTT cell viability assay, WT U251 GBM cells; format: cell-based, human
[3] = test system: U251 and U87 GBM model cells; test: Matrigel invasion chamber assay; format: cell-based, human; conditions: 10μM, 22h
[4] = molecular target: T1, ERβ (Homo sapiens, UniProt Q92731); test: ERE-Luc reporter gene assay in U251 GBM cells expressing ERβ; format: cell-based; conditions: 24 h
[5] = test system: GBM cells; test: Annexin V/PI apoptosis assay; format: cell-based, human; conditions: 20 μM
[6] = test system: U251- ERβ KO cells; test: Invasion and colony formation of U251-ERβ KO cells; format: cell-based, human
[7] = test system: primary GSCs; test: CellTiter Glo cell viability assay, patient derived GSCs; format: cell-based, human; conditions: multiple primary GSCs
[8] = test system: orthotopic U251 tumor; test: Orthotopic U251 xenograft model; format: in vivo, mice; conditions: 50 mg/kg/i.p.
[9] = test system: U251 GBM model cells expressing ERβ; test: MTT cell viability assay, U251 GBM model cells expressing ERβ; format: cell-based, human; conditions: read-out: growth inhibitory activity IC50
[10] = test system: GSC-031417, GSC-012015, and GSC-040815 cells; test: Neurosphere formation assay; format: cell-based, human; conditions: 20 μM, three GSC model cells
[11] = test system: SOX2, and OCT4; test: Western blotting of stemness markers in GSCs; format: cell-based, human
[12] = test system: ERβ target genes; test: RT-qPCR of ERβ target genes in patient derived GSCs; format: cell-based, human; conditions: 10 μM, 72h, GSC-040815, GSC-031417, RT-qPCR
[13] = test system: U251 subcutaneous xenograft; conditions: 20 mg/kg/day i.p.
[14] = test system: normal human astrocytes; test: MTT cell viability assay, normal human astrocytes; format: cell-based
[15] = molecular target: T1, ERβ; test: ERE-Luc reporter gene assay in HEK293T cells expressing ERβ; format: cell-based; conditions: 24 hours
[16] = test system: GSC-040815 orthotopic tumor; test: Orthotopic xenograft model with patient-derived GSC-040815 cells; format: in vivo, SCID mice; conditions: 50 mg/kg/i.p.
[17] = molecular target: ERα (Homo sapiens, UniProt P03372); test: ERE-Luc reporter gene assay in HEK293T cells expressing ERα; format: cell-based; conditions: 24 hours
[18] = test system: U251-ERβ-KO cells; test: MTT cell viability assay, U251-ERβ-KO cells; format: cell-based, human
[19] = mouse, in vivo, ip, 20 mg/kg
[20] = test system: U251 and U87 cells; test: Colony formation; format: cell-based, human; conditions: 10 μM
[21] = molecular target: T1, ERβ; test: PolarScreen ER competitive binding assay; conditions: based on EC50 values from polar screen ERα and ERβ assays
[22] = no reference given; cited from earlier work
[23] = test system: GBM cells; conditions: read-out: IC50 in GBM cells, no reference given; cited from earlier work

T1 sequence (Q92731 whole entry): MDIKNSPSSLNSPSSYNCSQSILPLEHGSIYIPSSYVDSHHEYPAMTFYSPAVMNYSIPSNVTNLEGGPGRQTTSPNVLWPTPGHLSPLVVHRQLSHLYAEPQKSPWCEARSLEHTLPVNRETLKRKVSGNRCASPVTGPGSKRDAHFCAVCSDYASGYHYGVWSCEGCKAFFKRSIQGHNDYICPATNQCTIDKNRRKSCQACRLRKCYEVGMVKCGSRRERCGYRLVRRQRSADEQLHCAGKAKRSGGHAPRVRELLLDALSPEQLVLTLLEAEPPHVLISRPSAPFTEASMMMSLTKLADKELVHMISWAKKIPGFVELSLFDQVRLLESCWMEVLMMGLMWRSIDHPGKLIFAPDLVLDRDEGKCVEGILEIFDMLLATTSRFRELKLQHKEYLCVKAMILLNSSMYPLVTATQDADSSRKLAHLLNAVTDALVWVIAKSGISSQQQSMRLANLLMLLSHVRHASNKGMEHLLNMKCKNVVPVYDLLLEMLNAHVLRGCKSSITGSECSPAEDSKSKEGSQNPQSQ
ERα, sequence (P03372 whole entry): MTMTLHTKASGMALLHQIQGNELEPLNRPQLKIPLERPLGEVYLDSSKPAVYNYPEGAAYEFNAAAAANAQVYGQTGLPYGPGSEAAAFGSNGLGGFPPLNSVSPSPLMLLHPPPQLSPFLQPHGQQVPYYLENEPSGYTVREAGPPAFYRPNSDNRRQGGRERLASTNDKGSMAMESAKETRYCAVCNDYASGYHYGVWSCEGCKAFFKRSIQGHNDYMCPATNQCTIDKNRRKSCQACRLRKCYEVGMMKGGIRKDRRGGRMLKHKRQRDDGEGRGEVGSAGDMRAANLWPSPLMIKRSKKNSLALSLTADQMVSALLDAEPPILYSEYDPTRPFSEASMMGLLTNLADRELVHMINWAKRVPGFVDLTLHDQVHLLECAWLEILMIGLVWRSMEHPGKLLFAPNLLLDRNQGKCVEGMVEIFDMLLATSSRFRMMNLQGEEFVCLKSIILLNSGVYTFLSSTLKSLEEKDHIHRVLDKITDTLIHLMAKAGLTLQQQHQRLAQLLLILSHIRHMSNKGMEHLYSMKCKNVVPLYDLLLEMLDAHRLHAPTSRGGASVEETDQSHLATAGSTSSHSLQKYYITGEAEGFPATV

## CCN(CC)CCCC(C)NC(=O)c1ccc2c(c1)C(=O)c1ccccc1C2=O (stereo not shown) [CIDD-0149897]
[1]
  IC50: 7 to 15 µM
[2]
  effect on U251 cell viability: significantly decreased
[3]
  GBM cells invasion: significantly reduced
[4]
  ERβ reporter activity: enhanced ERβ reporter activity in a dose dependent manner in U251 GBM cells
[5]
  apoptosis of GBM cells: significantly promoted apoptosis
[6]
  invasion and colony formation of U251- ERβ KO cells: no significant effect
[7]
  cytotoxic activity against primary GSCs: potent cytotoxic activity
[8]
  survival of orthotopic U251 tumor bearing mice: significantly increased the survival
[8]; tumor sections
  Ki-67 positive proliferating cells, IHC: fewer proliferating cells
[9]
  IC50: 7.4 µM and ~7.4 µM
[10]
  neurosphere growth: significantly reduced
[11]
  expression of stemness markers: reduced the expression of stemness markers
[12]
  expression of ERβ target genes: activation of ERβ target genes
[13]
  ERβ target genes in tumor tissues, RT-qPCR: significant increase
[13]; 5 days/week
  tumor progression compared to vehicle: significantly reduced
[13]; after 35 days of treatment
  tumor weights compared to vehicle: significantly smaller
[13]; tumors
  Ki-67 positive proliferating cells, IHC: fewer proliferating cells
[14]
  effect on viability of normal human astrocytes: little to no effect
[14]; listed as CIDD-014987
  effect on viability of normal human astrocytes: no/limited effect
[15]
  ERβ reporter activity: enhanced ERβ reporter activity in a dose dependent manner
[16]
  Ki-67 positive cells, IHC: significantly decreased
  survival of GSC tumor-bearing mice: significantly enhanced the survival
[17]
  ERα reporter activation: no activation of ERα reporter
[18]
  effect on viability of ERβ-KO cells: little to no effect
[18]; listed as CIDD-014987
  effect on viability of ERβ-KO cells: no/limited effect
[19]
  mean half-life, terminal elimination phase: 9.59 h
  time to maximum blood concentration: less than 15 min
[20]
  long-term colony formation: significantly reduced
[21]
  selectivity for ERβ over ERα: 40 fold

## Oc1ccc([C@H]2COc3cc(O)ccc3C2)cc1 [S-equol]
[22]
  brain penetration: lacks brain penetration
[23]
  IC50: 100 to 200 µM
